Source: ChEMBL document CHEMBL3576801, “Praeruptorin A inhibits in vitro migration of preosteoclasts and in vivo bone erosion, possibly due to its potential to target calmodulin” (J Nat Prod, 2015)
Active and inactive are the calls of the source. The calls are words filed in the database; no cut-off is given here.

Experiments:
[1] = target: T1, Tumor necrosis factor ligand superfamily member 11 (Mus musculus) (UniProt O35235); experiment: Inhibition of RANKL-induced fusion of preosteoclast derived from ICR mouse bone marrow-derived macrophages assessed as formation of tartrate-resistant acid phosphatase-positive multinucleated osteoclast preincubated for 30 mins with M-CSF followed by RANKL induction measured after 1 day by TRAP staining; type: functional, cell-based
T1 sequence (whole entry): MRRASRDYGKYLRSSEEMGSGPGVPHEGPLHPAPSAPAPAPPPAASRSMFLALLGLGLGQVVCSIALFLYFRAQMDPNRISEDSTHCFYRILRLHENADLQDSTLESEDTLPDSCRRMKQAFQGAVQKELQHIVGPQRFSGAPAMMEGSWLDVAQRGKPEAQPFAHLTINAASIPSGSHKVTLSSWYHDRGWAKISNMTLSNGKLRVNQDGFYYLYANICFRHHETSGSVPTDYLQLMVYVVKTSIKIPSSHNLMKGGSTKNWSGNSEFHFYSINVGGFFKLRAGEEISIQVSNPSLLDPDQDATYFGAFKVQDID

[2] = Cytotoxicity against preosteoclast derived from ICR mouse bone marrow-derived macrophages assessed as cell viability at 0.1 to 10 uM after 1 day by CCK-8 assay; type: cell-based; conditions: osteoclast, 24 h
[3] = target: T1, Tumor necrosis factor ligand superfamily member 11 (Mus musculus); experiment: Inhibition of RANKL-induced migration of preosteoclast derived from ICR mouse bone marrow-derived macrophages after 8 hrs by Boyden chamber assay; type: functional, cell-based; conditions: Osteoclast
[4] = target: Calmodulin-1 (Mus musculus) (UniProt P0DP26); experiment: Binding affinity to Ca2+/calmodulin complex in preosteoclast derived from ICR mouse bone marrow-derived macrophages assessed as inhibition of RANKL-induced NFATc1 nuclear translocation at 10 uM preincubated for 30 mins with M-CSF followed by RANKL induction measured after 3 to 7 hrs by Western blot analysis
[5] = target: Calmodulin-1 (Mus musculus) (UniProt P0DP26); experiment: (§1) Binding affinity to Ca2+/calmodulin complex in preosteoclast derived from ICR mouse bone marrow-derived macrophages assessed as inhibition of RANKL-induced NFATc1 mRNA expression at 10 uM preincubated for 30 mins with M-CSF followed by RANKL induction measured after 3 hrs by real-time PCR analysis
[6] = target: Calmodulin-1 (Mus musculus) (UniProt P0DP26); experiment: Binding affinity to Ca2+/calmodulin complex in preosteoclast derived from ICR mouse bone marrow-derived macrophages assessed as inhibition of RANKL-induced c-Fos mRNA expression at 10 uM preincubated for 30 mins with M-CSF followed by RANKL induction measured after 3 hrs by real-time PCR analysis
[7] = target: Calmodulin-1 (Mus musculus) (UniProt P0DP26); experiment: Binding affinity to Ca2+/calmodulin complex in preosteoclast derived from ICR mouse bone marrow-derived macrophages assessed as inhibition of RANKL-induced ATP6v0d2 mRNA expression at 10 uM preincubated for 30 mins with M-CSF followed by RANKL induction measured after 3 hrs by real-time PCR analysis
[8] = target: Calmodulin-1 (Mus musculus) (UniProt P0DP26); experiment: Binding affinity to Ca2+/calmodulin complex in preosteoclast derived from ICR mouse bone marrow-derived macrophages assessed as inhibition of RANKL-induced DC-STAMP mRNA expression at 10 uM preincubated for 30 mins with M-CSF followed by RANKL induction measured after 3 hrs by real-time PCR analysis
[9] = target: Calmodulin-1 (Mus musculus) (UniProt P0DP26); experiment: as §1, with “alphaV-integrin” for “NFATc1”
[10] = target: Calmodulin-1 (Mus musculus) (UniProt P0DP26); experiment: as §1, with “cathepsin K” for “NFATc1”
Calmodulin (Bos taurus) [11] = target: Calmodulin (Bos taurus) (UniProt P62157); experiment: Binding affinity to bovine brain calmodulin at 0.1 mM after 60 mins by gel mobility shift assay in presence of CaCl2
Calmodulin (Bos taurus) [12] = target: Calmodulin (Bos taurus) (UniProt P62157); experiment: Binding affinity to bovine brain calmodulin at 0.1 mM after 60 mins by gel mobility shift assay in presence of EGTA
[13] = target: Calmodulin-1 (Mus musculus) (UniProt P0DP26); experiment: Binding affinity to Ca2+/calmodulin complex in preosteoclast derived from ICR mouse bone marrow-derived macrophages assessed as inhibition of CaMK-4 phosphorylation at T196 preincubated for 30 mins with M-CSF followed by RANKL induction measured after 30 mins by Western blot analysis
[14] = target: Calmodulin-1 (Mus musculus) (UniProt P0DP26); experiment: Binding affinity to Ca2+/calmodulin complex in preosteoclast derived from ICR mouse bone marrow-derived macrophages assessed as inhibition of CREB phosphorylation at S133 preincubated for 30 mins with M-CSF followed by RANKL induction measured after 30 mins by Western blot analysis
[15] = target: Calmodulin-1 (Mus musculus) (UniProt P0DP26); experiment: Binding affinity to Ca2+/calmodulin complex in preosteoclast derived from ICR mouse bone marrow-derived macrophages assessed as inhibition of NFATc1 nuclear translocation at 0.3 to 10 uM preincubated for 30 mins with M-CSF followed by RANKL induction measured after 30 mins by Western blot analysis
[16] = target: Calmodulin-1 (Homo sapiens) (UniProt P0DP23); experiment: Binding affinity to recombinant human calmodulin assessed as inhibition of calcineurin phosphatase activity using R2 phosphopeptide substrate at 3 to 10 uM after 30 mins by malachite green staining-based colorimetric analysis in presence of CaCl2
Mus musculus [17] = experiment: Antiresorptive activity in ICR mouse assessed as inhibition of LPS-induced cancellous bone loss in distal metaphysis at 2 to 4 mg/kg, ip administered for 8 days with LPS challenge on day 2 and 5 measured on day 9 by microCT analysis; type: functional, organism-based
Mus musculus [18] = experiment: Antiresorptive activity in ICR mouse assessed as reduction of LPS-induced trabecular bone loss at 2 to 4 mg/kg, ip administered for 8 days with LPS challenge on day 2 and 5 measured on day 9 by hematoxylin and eosin staining; type: functional, organism-based; conditions: Trabecula
Mus musculus [19] = experiment: Antiresorptive activity in ICR mouse assessed as inhibition of LPS-induced changes in bone volume/tissue volume at 2 to 4 mg/kg, ip administered for 8 days with LPS challenge on day 2 and 5 measured on day 9 by histomorphometric analysis; type: functional, organism-based
Mus musculus [20] = experiment: Antiresorptive activity in ICR mouse assessed as inhibition of LPS-induced changes in trabecular thickness at 2 to 4 mg/kg, ip administered for 8 days with LPS challenge on day 2 and 5 measured on day 9 by histomorphometric analysis; type: functional, organism-based; conditions: Trabecula
Mus musculus [21] = experiment: Antiresorptive activity in ICR mouse assessed as inhibition of LPS-induced changes in trabecular number at 2 to 4 mg/kg, ip administered for 8 days with LPS challenge on day 2 and 5 measured on day 9 by histomorphometric analysis; type: functional, organism-based; conditions: Trabecula
Mus musculus [22] = experiment: Antiresorptive activity in ICR mouse assessed as inhibition of LPS-induced changes in bone surface/tissue volume at 2 to 4 mg/kg, ip administered for 8 days with LPS challenge on day 2 and 5 measured on day 9 by histomorphometric analysis; type: functional, organism-based
Mus musculus [23] = experiment: Antiresorptive activity in ICR mouse assessed as inhibition of LPS-induced changes in trabecular separation at 2 to 4 mg/kg, ip administered for 8 days with LPS challenge on day 2 and 5 measured on day 9 by histomorphometric analysis; type: functional, organism-based; conditions: Trabecula
Mus musculus [24] = experiment: Antiresorptive activity in ICR mouse assessed as inhibition of LPS-induced changes in bone mineral density at 2 to 4 mg/kg, ip administered for 8 days with LPS challenge on day 2 and 5 measured on day 9 by histomorphometric analysis; type: functional, organism-based

inhibition [4]: Active
inhibition [5]: Active
inhibition [6]: Active
inhibition [7]: Active
inhibition [8]: Active
inhibition [9]: Active
inhibition [10]: Active
Activity (Calmodulin (Bos taurus) [11]): Active
Activity (Calmodulin (Bos taurus) [12]): inactive
inhibition [13]: Dose-dependent effect
inhibition [14]: Dose-dependent effect
inhibition [15]: Active
inhibition [16]: Active
SMILES: C/C=C(/C)C(=O)O[C@@H]1[C@@H](OC(C)=O)c2c(ccc3ccc(=O)oc23)OC1(C)C
inhibition [1]: Dose-dependent effect
Activity [2]: Non-toxic
inhibition [3]: Dose-dependent effect
inhibition (Mus musculus [17]): Active
Activity (Mus musculus [18]): Active
inhibition (Mus musculus [19]): Active
inhibition (Mus musculus [20]): Active
inhibition (Mus musculus [21]): Active
inhibition (Mus musculus [22]): Active
inhibition (Mus musculus [23]): Active
inhibition (Mus musculus [24]): Active
